Reference: paper PMC7615700, “Is the ADP ribose site of the Chikungunya virus NSP3 Macro domain a target for antiviral approaches?” (Acta tropica, 2020)

Tests used:
[1] = MTT cell viability assay in Huh-7 cells; details: human
[2] = tested on: CHIKV-Fluc SGR (CHIKV subgenomic replicon) in Huh-7 cells; test: CHIKV-Fluc SGR replication assay (luciferase) in Huh-7 cells; details: for EC50 / CHIKV %replication 20 uM: Huh-7, CHIKV-Fluc SGR; for EC50: 24 h post treatment; for SI (CC50/EC50): Huh-7; for CHIKV %replication 20 uM: 24 h treatment; for inhibition at 20 µM: Huh-7, read-out: inhibition of CHIKV replication
CHIKV = details: cited from earlier work; for in vitro anti-CHIKV activity: by inhibiting RNA production and viral protein expression, ref Lani et al., 2016
[3] = Cell viability in RD cells; assay type: cell-based; details: human, RD rhabdomyosarcoma cells electroporated with CHIKV-Fluc RNA
From the text: (§1) DMSO was used as non-treated control.

[4] = tested on: CHIKV-D-Luc SGR in Huh-7 cells; test: CHIKV-D-Luc SGR dual luciferase replicon assay in Huh-7 cells; details: Huh-7, non-toxic concentrations
Huh-7 cells = test: MTT cell viability assay in Huh-7 cells; details: 20 μM, Huh-7, MTT
[5] = tested on: CHIKV-Fluc SGR in RD cells; test: CHIKV-Fluc replication assay in RD cells; details: Chikungunya virus, read-out: inhibition of CHIKV replication
[6] = Cell viability in C2C12 cells; assay type: cell-based, murine; details: mouse, C2C12 myoblast cells electroporated with CHIKV-Fluc RNA
From the text: as §1

[7] = tested on: CHIKV-Fluc SGR in C2C12 cells; test: CHIKV-Fluc replication assay in C2C12 cells; details: Chikungunya virus, C2C12, read-out: inhibition of CHIKV replication
[8] = decimal comma; ref ZINC15; cited from earlier work

With `CC(c1ccccc1)N(Cc1nc(C(=O)NCCN2CCOCC2)co1)Cc1ccc(Cl)cc1Cl` (centres unmarked) [Compound 1C5] as the compound, how does the CC50 at 24 h [1] read?
The CC50 at 24 h was 27.5 µM.

What about the EC50 ([2]; Chikungunya virus, Huh-7, 24 h) of the same compound?
The EC50 was 19.8 µM.

And the “SI (CC50/EC50)” value [2]?
Its value is 1.4.

For `CC(c1ccccc1)N(Cc1cccc(Cl)c1)Cc1nc(C(=O)NCCN2CCOCC2)co1` (centres unmarked) [Compound 2C5], which CC50 at 24 h [1] is on record?
The CC50 at 24 h was 27.4 µM.

And the EC50 ([2]; Chikungunya virus, Huh-7, 24 h)?
Its EC50 is 27.3 µM.

And the “SI (CC50/EC50)” value [2]?
The value was 1.0.

Which CC50 at 24 h [1] does the source give for `O=C(NCc1cccnc1)c1coc(CN(Cc2ccccc2)Cc2ccc3c(c2)OCO3)n1` [Compound 1C13] here?
Its CC50 at 24 h is 18.1 µM.

What about the EC50 ([2]; Chikungunya virus, Huh-7, 24 h) of the same compound?
The EC50 was 6.9 µM.

What about the “SI (CC50/EC50)” value [2] of the same compound?
Its value is 2.6.

Which “in vitro anti-CHIKV activity” value (CHIKV) does the source give for `O=c1c(O)c(-c2ccc(O)c(O)c2)oc2cc(O)ccc12` [fisetin] here?
The value was “showed in vitro anti-CHIKV activity”.

Which results are given for `CC(c1ccccc1)N(Cc1nc(C(=O)NCCN2CCOCC2)co1)Cc1ccccc1F` (centres unmarked) [Compound 3C5]?
CC50 at 24 h [1]: 40.5 µM; EC50 ([2]; Chikungunya virus, Huh-7, 24 h): 26.9 µM; SI (CC50/EC50) [2]: 1.5

With `COc1cccc(CN(Cc2nc(C(=O)NCCN3CCOCC3)co2)C(C)c2ccccc2)c1` (centres unmarked) [Compound 4C5] as the compound, how does the CC50 at 24 h [1] read?
Its CC50 at 24 h is 45.2 µM.

And the EC50 ([2]; Chikungunya virus, Huh-7, 24 h)?
Its EC50 is 29.3 µM.

What about the “SI (CC50/EC50)” value [2] of the same compound?
Its value is 1.5.

With `CC(c1ccccc1)N(Cc1cccc(F)c1)Cc1nc(C(=O)NCCN2CCOCC2)co1` (centres unmarked) [Compound C5] as the compound, how does the viability at 24 h, 100 µM [3] read?
Its viability at 24 h, 100 µM is 65%.

And the “Rluc levels (input translation and early replication)” value [4]?
The value was “significantly decreased”.

And the CC50 at 24 h [1]?
Its CC50 at 24 h is 38.9 µM.

What about the viability at 24 h, 20 µM [1] of the same compound?
Its viability at 24 h, 20 µM is 94%.

What about the “% Toxicity (20μM)” value (Huh-7 cells) of the same compound?
Its value is “None”.

And the “CHIKV %replication 20 uM” value [2]?
Its value is 53%.

What about the EC50 ([2]; Chikungunya virus, Huh-7, 24 h) of the same compound?
The EC50 was 12.7 µM.

What about the inhibition at 20 µM ([2]; Chikungunya virus) of the same compound?
Its inhibition at 20 µM is 53%.

What about the “SI (CC50/EC50)” value [2] of the same compound?
The value was 3.1.

And the inhibition at 100 µM [5]?
Its inhibition at 100 µM is 100%.

What about the viability at 24 h, 100 µM [6] of the same compound?
The viability at 24 h, 100 µM was 49%.

What about the inhibition at 100 µM [7] of the same compound?
The inhibition at 100 µM was 70%.

Which “inhibition of virus entry versus replication” value (CHIKV; ref Oo et al., 2018) does the source give for `O=c1cc(-c2ccccc2)oc2cc(O)c(O)c(O)c12` [Baicalein] here?
Its value is “higher inhibition on virus entry than replication”.

With `O=C(NCc1cccnc1)c1coc(CN(Cc2ccoc2)Cc2cccc(C(F)(F)F)c2)n1` [Compound C13] as the compound, how does the viability at 24 h, 100 µM [3] read?
The viability at 24 h, 100 µM was 70%.

And the “Rluc levels (input translation and early replication)” value [4]?
The value was “significantly decreased”.

And the CC50 at 24 h [1]?
The CC50 at 24 h was 36.8 µM.

And the viability at 24 h, 20 µM [1]?
The viability at 24 h, 20 µM was 94%.

What about the “% Toxicity (20μM)” value (Huh-7 cells) of the same compound?
The value was “None”.

And the “CHIKV %replication 20 uM” value [2]?
Its value is 66%.

And the EC50 ([2]; Chikungunya virus, Huh-7, 24 h)?
The EC50 was 11.9 µM.

What about the inhibition at 20 µM ([2]; Chikungunya virus) of the same compound?
Its inhibition at 20 µM is 66%.

And the “SI (CC50/EC50)” value [2]?
The value was 3.2.

What about the EC50 [2] of the same compound?
The EC50 was 11.6 µM.

And the inhibition at 100 µM [5]?
Its inhibition at 100 µM is 95%.

And the “logP ZINC15” value [8]?
The value was 4,81.

What about the viability at 24 h, 100 µM [6] of the same compound?
The viability at 24 h, 100 µM was 51%.

And the inhibition at 100 µM [7]?
Its inhibition at 100 µM is 64%.

With `O=c1c(O)c(-c2ccc(O)c(O)c2)oc2cc(O)c(O)c(O)c12` [quercetagetin] as the compound, how does the “in vitro anti-CHIKV activity” value (CHIKV) read?
The value was “showed in vitro anti-CHIKV activity”.
